Measurements reported in patent US20230371814A1, “WIRELESS THERANOSTIC SMART CONTACT LENS CAPABLE OF MEASURING AND ADJUSTING INTRAOCULAR PRESSURE IN GLAUCOMA PATIENTS” (POSTECH RESEARCH AND BUSINESS DEVELOPMENT FOUNDATION, priority 2022, published 2023).

Assay: In vitro release of timolol from the drug reservoir of the flexible DDS
Format: physicochemical
Description: An electrochemical reaction of gold was examined in vitro in PBS (pH 7.4) and artificial tears having a constant voltage of 1.85 V. Timolol was released from the drug reservoir by applying a voltage of 1.85 V to an anode and a cathode of a DDS for 5 minutes. A concentration of the released timolol was quantified with a UV-vis spectrometer at an absorbance wavelength of 259 nm.

drug (timolol) released (absence of the PVA layer): less than 50%
timolol released without electrical triggering (for 90 minutes, without electrical triggering): less than 5%
drug (timolol) dissolution (presence of PVA): completely dissolved
time until almost all of the timolol was completely released (presence of PVA): ≤ 30 min
timolol released within 5 minutes (presence of PVA, within 5 minutes): less than 85%
cumulative release of timolol at each activation (three reservoirs activated at 10, 25 and 40 minutes): significantly enhanced
cumulative release of timolol before activation (three reservoirs, until 10 minutes (before first activation)): no significant release
SMILES: CC(C)(C)NC[C@H](O)COc1nsnc1N1CCOCC1 [timolol]
